Measurements as given in patent US10167346B2, “Compositions and methods for making alpha-(1,2)-branched alpha-(1,6) oligodextrans” (TATE & LYLE INGREDIENTS FRANCE SAS, priority 2009, dated 2019).

System: Caenorhabditis elegans
Assay: lipid content in the in vivo model Caenorhabditis elegans
Conditions: positive control, concentration not given
Experimental: Oligodextrans according to the present invention were evaluated for their effect on lipid content using the in vivo model Caenorhabditis elegans. The substrates evaluated were TLD-1000 (unbranched 1 kDa dextran) and TLD-1030 (1 kDa dextran+32% α-1,2). […] A negative control (DMSO) and positive control (Orlistat) were also included. Each substrate was assayed four times with a total of 120 worms per substrate and concentration.

In the case of `CCCCCCCCCCC[C@@H](C[C@@H]1OC(=O)[C@H]1CCCCCC)OC(=O)[C@H](CC(C)C)NC=O` [Orlistat], the “reduction in lipid content” value is reported as over 40%.
